From patent publication US20260094266A1, “DIGITAL SYSTEM FOR CELL ASSAYS USING LABEL FREE MICROSCOPY” (NANOLIVE SA, priority 2022, published 2026)

What was measured:
Type in all cases: cell-based
HeLa cells = assay: LCDA quantification of Ebastine-induced cell death in HeLa cells (FIG. 7); details: 50 uM Ebastin, treated right before acquisition; versus control well; 5 h post treatment
From the text: FIG. 7: Application of LCDA to quantify Ebastine-induced cell death—HeLa cells grown in two wells were used as (A) control and (B) treatment experiment.

[1] = tested on: 3T3-L1-derived preadipocyte cells; assay: LCDA quantification of Ebastin-induced cell death in 3T3-L1-derived preadipocytes; details: 20 μM Ebastin added 1 hour before acquisition; versus untreated cells
Experimental: It was finally concluded by quantifying the capacity of another drug to kill cells, Ebastin, to validate the simplest of the uses of the LCDA. 3T3-L1-derived preadipocyte cells were seeded in 35 mm dish at ˜30,000 cells/ml and let to grow for 48 h in DMEM supplemented with 10% FBS.

[2] = tested on: 3T3-L1-derived preadipocyte cells; assay: Live cell death assay (LCDA) benchmarked with live fluorescent cell death kit, camptothecin treatment; details: 2.5 μM camptothecin added 4 hours before acquisition; imaged for 17.5 hours; versus without camptothecin
From the text: To validate the performance of the LCDA, the invention method was benchmarked with a state-of-the-art live fluorescent kit (FIG. 6). 3t3-derived preadipocytes were imaged on an optical diffraction tomography system combining RI recording and epifluorescence, with and without addition of camptothecin, a proapoptotic drug (FIG. 6). Annexin V-Cy5 and Nuclear Green DCS1 were used as fluorescent markers to detect apoptosis and necrosis, respectively. The RI images of the kit-stained cells were also analyzed with the LCDA. The cell death information provided by the fluorescent signals contained within the RI segmentation masks was then compared, with the LCDA results (FIG. 6, E and F).
3T3-L1-derived preadipocyte cells were seeded in a 35 mm dish at ˜30,000 cells/ml and let to grow for 48 h in DMEM supplemented with 10% FBS. 4 hours before starting the acquisition, the cells were treated with 2.5 μM camptothecin (abcam—ab120115) to induce apoptosis. 10 minutes before starting the acquisition, Annexin V-Cy5 and Nuclear Green DCS1 (abcam—ab14147, ab138905) were added to the medium, following the supplier's protocol. […]
RI images were then analyzed and plotted with the LCDA module's features. Fluorescence was quantified by measuring the mean intensity in each cell using RI segmentations using an independent image analysis tool. […]

| Compound | number of dead cells predicted over time (cell death rate) (HeLa cells) | induced cell death over time (LCDA) [1] | death of cells (LCDA and Annexin V-Cy5 / Nuclear Green DCS1 fluorescence) [2] |
| --- | --- | --- | --- |
| CC(C)(C)c1ccc(C(=O)CCCN2CCC(OC(c3ccccc3)c3ccccc3)CC2)cc1 [Ebastin] | higher cell death rate in the treated condition already at 5 h post treatment | treated cells show a very clear curve of induced cell death | – |
| CC[C@@]1(O)C(=O)OCc2c1cc1n(c2=O)Cc2cc3ccccc3nc2-1 [camptothecin] | – | – | accelerates greatly the death of cells and results in the whole cell population dying by the end of the experiment |
